These are literature values, as cited in patent US20260334526A1 (NICOVENTURES TRADING LIMITED, priority 2022, published 2026).

The conditions of data set [1]: for solubility: fats, alcohols, water.
For data set [2] the following is noted: nicotine solution at pH=6 relative to pH 8.1; perfusion cell; Adrian et al.

Turning to `COC(=O)/C=C/C(C)=C\C=C\C(C)=C\C=C\C=C(C)\C=C\C=C(C)\C=C\C(=O)O` [bixin, (2E,4E,6E,8E,10E,12E,14E,16Z,18E)-20-methoxy-4,8,13,17-tetramethyl-20-oxoicosa-2,4,6,8,10,12,14,16,18-nonaenoic acid], in data set [1], the solubility result was “soluble in fats and alcohols but insoluble in water”. For the same compound, in data set [1] (when isolated), the chemical stability entry is on record as “chemically unstable when isolated”.
In the case of `CC(/C=C/C=C(C)/C=C/C(=O)O)=C\C=C\C=C(C)\C=C\C=C(C)\C=C\C(=O)O` (stereo in doubt) [norbixin, (2E,4E,6E,8E,10E,12E,14E,16E,18E)-4,8,13,17-tetramethylicosa-2,4,6,8,10,12,14,16,18-nonaenedioic acid], the solubility result in data set [1] is “water-soluble”.
For the compound `CN1CCCC1c1cccnc1` (stereo not shown) [nicotine], the “reduction of diffusion rate across human buccal tissue (factor)” value in data set [2] is given as ~ 7.
